According to PMC11163866 (Journal of medicinal chemistry, 2024):
Where a name gives a salt, the structure may show the parent alone.

Tests used:
[1] = In vitro metabolic stability in human liver microsomes; type: in vitro ADME; conditions: 1 μM; 0.5 mg/mL microsomes; up to 60 min
Plasmodium yoelli = Plasmodium yoelli infection in mice; type: in vivo; conditions: unpublished results
[2] = In vitro metabolic stability in mouse liver microsomes; type: in vitro ADME; conditions: 1 μM; 0.5 mg/mL microsomes; up to 60 min
L. mexicana amastigote = type: cell-based; conditions: Leishmania mexicana, J774.A1, read-out: inhibition at 0.1 μM vs L. mexicana
[3] = tested on: Salmonella typhimurium TA100 and TA98; assay: Ames mutagenicity assay; type: cell-based; conditions: up to 10 μM, with and without S9
L. mexicana = assay: In vivo efficacy, murine model of cutaneous leishmaniasis; set-up: species or system BALB/c mice; conditions: oral gavage 40–60 mg/kg/d for 10 days

SMILES | metabolic stability (t1/2, min) vs HLM [1] | efficacy in curing Plasmodium yoelli infections in mice (Plasmodium yoelli) | metabolic stability (t1/2, min) vs MLM [2] | inhibition of growth at 0.1 µM (L. mexicana amastigote) | Ames mutagenicity result [3] | in vivo efficacy compared with the other TAs tested (L. mexicana)
CCC1=C(CC)/C(=C/N[C@H]2CC[C@H](C)CC2)N=C1c1ccc[nH]1.Cl [compound 95, (1r,4r)-N-((Z)-(3',4'-Diethyl-1H,5'H-[2,2'-bipyrrol]-5'-ylidene)methyl)-4-methylcyclohexan-1-amine Hydrochloride] | 23.3 min | strong efficacy | 37.5 min | – | – | –
COC1=CC(c2ccc[nH]2)=N/C1=C\Nc1ccccc1OC(F)(F)F [compound 59, (Z)-N-((4'-Methoxy-1H,5'H-[2,2'-bipyrrol]-5'-ylidene)methyl)-2-(trifluoromethoxy)aniline Hydrochloride] | – | – | – | ~30% | – | –
C(/NC1CCCCC1)=C1/N=C(c2ccc[nH]2)C2=C1CCCC2.Cl [compound 101, (Z)-N-((3-(1H-Pyrrol-2-yl)-4,5,6,7-tetrahydro-1H-isoindol-1-ylidene)methyl)cyclohexanamine Hydrochloride] | 26.7 min | strong efficacy | 33.0 min | – | – | –
CCc1ccc(C2=N/C(=C\NC3CCCCCC3)C(C)=C2C)[nH]1.Cl [compound 110, (Z)-N-((5-Ethyl-3',4'-dimethyl-1H,5'H-[2,2'-bipyrrol]-5'-ylidene)methyl)cycloheptanamine Hydrochloride] | > 60.0 min | strong efficacy | > 60.0 min | – | negative | greater efficacy than both 95 and 101
CC1=C(C)/C(=C/NC2CCCCCC2)N=C1c1ccc(CC(C)C)[nH]1.Cl [compound 111, (Z)-N-((5-Isobutyl-3',4'-dimethyl-1H,5'H-[2,2'-bipyrrol]-5'-ylidene)methyl)cycloheptanamine Hydrochloride] | > 60.0 min | – | > 60.0 min | – | – | –
Cl.FC(F)(F)Oc1ccc(C2=CC(c3ccc[nH]3)=N/C2=C\NC23CC4CC(CC(C4)C2)C3)cc1 [compound 80, (3s,5s,7s)-N-((Z)-(4'-(4-(Trifluoromethoxy)phenyl)-1H,5'H-[2,2'-bipyrrol]-5'-ylidene)methyl)adamantan-1-amine Hydrochloride] | > 60.0 min | – | > 60.0 min | – | – | –
COC1=CC(c2ccc(Cc3ccc(OC)cc3)[nH]2)=N/C1=C\NC1CCCCCCC1.Cl [compound 122, (Z)-N-((4'-Methoxy-5-(4-methoxybenzyl)-1H,5'H-[2,2'-bipyrrol]-5'-ylidene)methyl)cyclooctanamine Hydrochloride] | 50.8 min | – | 16.5 min | – | – | –
